Each block holds one compound with its values, some of them ahead of it.
How the values were obtained:
[1] = biological target: HSA (Homo sapiens, UniProt P02768); experiment: Fluorescence polarisation with increasing amounts of HSA; type: binding; conditions: 100 nM compound, PBS, 1 h at 25° C., read-out: dissociation constant
Description: 100 nM of 428-D-Lys-FAM, 622-D-Lys-FAM and, for comparison, of fluorescein and of phenethylamine-FAM were incubated with increasing amounts of HSA in PBS for 1 h at 25° C. The fluorescence polarization was determined by excitation at 485 nm and measurement at 535 nm.

[2] = Pharmacokinetic profile of 428-ε-Lys-α-NH-FITC vs. fluorescein in mice (LC/MS/MS of serum); set-up: species or system 129SV mice; conditions: 129SV, mouse, in vivo
Description: The pharmacokinetic properties of conjugates of the invention are evaluated by injection of both said conjugate and the corresponding unconjugated agent (i.e. the agent that has not been modified by a compound of the invention) into mice and subsequent sampling of the conjugate and agent concentrations. Conjugate and agent concentrations are determined by Liquid Chromatography/Mass Spectrometry/Mass Spectrometry (LC-MS/MS) according to techniques known in the art.
100 μl of a 170 μM solution of fluorescein and of 428-ε-Lys-α-NH-FITC were injected into 2 pairs of immunocompetent 129SV mice.

[3] = high doses, bolus injection; depending on the patient group; cited from earlier work
[4] = Fluorescein angiographic analysis of the retina (scanning-laser ophthalmoscopy); type: in vivo, C57BL/6 mice; conditions: mice, 50 nmol i.v.
Description: To obtain functional information on the imaging properties of 428-D-Lys-FAM, a fluorescein angiographic analysis of the retina was performed. Fluorescein and 428-D-Lys-FAM were injected i.v. into mice and pictures of the eye fundus taken at different time-points. The fluorescein angiographic pictures confirmed the results of the pharmacokinetic studies.
Scanning-laser opthalmoscopy imaging was performed with a Heidelberg Retina Angiograph (HRA I, Heidelberg Engineering, Germany), a confocal scanning-laser opthalmoscope, according to previously described procedures [see reference 39]. Briefly, wild-type C57BL/6 mice were anaesthetized with ketamine (66.7 mg/kg) and xylazine (11.7 mg./kg), and their pupils were dilated with tropicamide eye drops (Mydriaticum Stulln, Pharma Stulln, Germany). The HRA features two argon wavelengths (488 nm and 514 nm) in the short wavelength range and two infrared diode lasers (795 nm and 830 nm) in the long wavelength range. The laser wavelength of 488 nm was used for fluorescein angiography, with a barrier filter at 500 nm. Four mice each received either 50 nmol of fluorescein or 428-D-Lys-FAM dissolved in 100 μl of 100 mM Tris/HCl, 105 mM NaCl, pH 8.2 injected i.v. into the tail. […] In particular, the brightness value in this study was fixed so that the brightest image (428-D-Lys-FAM at 1 minute following injection) could be recorded without overexposure. […]

[5] = Pharmacokinetic profiles of fluorescein and FAM derivatives in mouse (LC/MS/MS of plasma); type: in vivo, 129SvPas mice; conditions: for half-life: 129SvPas, mouse, in vivo, iv, 20 nmol
Description: In a further in vivo experiment, the pharmacokinetic properties of fluorescein, phenethylamine-FAM, 428-D-Lys-FAM, and 622-D-Lys-FAM were measured and compared. Clearance profiles for the four compounds differed distinctly (FIG. 14).
Pharmacokinetic analyses were performed under the Project Licenses 198/2005 of the Veterinaramt des Kantons Zürich (issued to Dario Neri). 129SvPas mice were injected into the tail vein with 20 nmol of fluorescein, Phenethylamine-FAM, 428-D-Lys-FAM, or 622-D-Lys-FAM dissolved in 100 μl of 100 mM Tris/HCl, 105 mM NaCl, pH 8.2 (2 mice each). 20-30 μl blood samples were taken from the vena saphena with EDTA coated capillaries (Sarstedt) 1, 5, 15, 30, 60, 120, 240, 360, 480 and 1440 minutes after injection and centrifuged. 5-10 μl of plasma were mixed with 40 μl of 0.1% trifluoroacetic acid and 200 μl of ethanol and incubated on ice for 1 hour. After one hour the samples were centrifuged to remove the precipitated proteins. The supernatant was dried under vacuum and subsequently redissolved in 50 μl of DMSO/H2O. 40 μl were injected into an LC/MS/MS system (Micromass Quattro micro API) and run on a linear gradient from in 0.1% HCOOH from 5% to 95% acetonitrile in ten minutes on a Waters XTerra MS C18 column ([…], 1×50 mm) while observing the daughter ions with m/z of 287.1 and 202.1 of the parent ion 333.1 for fluorescein, with m/z of 287.3 and 332.3 of the parent ion 480.2 for Phenethylamine-FAM, with m/z of 287.3, 377.2 and 505.2 of the parent ion 777.1 for 428-D-Lys-FAM, and with m/z of 287.3 and 505.4 of the parent ion 651.3 for 622-D-Lys-FAM. Comparing the area under the curve with a previously obtained dilution series of fluorescein and 428-D-Lys-FAM in plasma with identical sample preparation allowed the quantification of the molecules.

[6] = MRI analysis of major blood vessels of the brain; type: in vivo, C57/B16 mice; conditions: mice, 1.2 μmol i.v.
Description: All animal experiments were carried out in strict adherence to the Swiss law for animal protection. MR measurements were performed on a Bruker PharmaScan 47/16 MR system (Bruker BioSpin GmbH) operating at 200 MHz using a circular cryogenic surface coil for signal transmission and reception. Mice were anesthetized with 1.4-1.5% isoflurane in air:O2 (4:1). Scout scans were performed to asses the anatomy of the animal. The shortening effect of both contrast agents DTPA-Gd and 428-D-Lys-β-Ala-DTPA-Gd on the longitudinal blood relaxation time (T1) was investigated in two C57/B16 mice. For this purpose, transverse cine 2D images were acquired using the following sequence parameters: field of view (FOV): 19×19×0.5 mm3, matrix size: 128×128, flip angle: 15°, TE/TR: 3.0/14 ms, averages: 6, repetitions: 50, temporal resolution: 10.75 s, total scan time: 8 min 57 s. The inflowing blood was saturated by exciting a 4 mm thick slice (flip angle15°) cranial to the imaging plane. Contrast agents were injected into the tail vein after a baseline of twenty repetitions. Firstly, a dose of 1.2 μmol of DTPA-Gd and secondly, after a wait time of 30 min, a dose of 1.2 μmol of 428-D-Lys-β-Ala-DTPA-Gd was administered. The time course of the MR signal was analyzed in a large vessel and normalized to the baseline value for comparison.

[7] = biological target: albumin (Homo sapiens, UniProt P02768); conditions: background statement; cited from earlier work
[8] = background, reference 2; cited from earlier work

Sequence of HSA (P02768 25-609): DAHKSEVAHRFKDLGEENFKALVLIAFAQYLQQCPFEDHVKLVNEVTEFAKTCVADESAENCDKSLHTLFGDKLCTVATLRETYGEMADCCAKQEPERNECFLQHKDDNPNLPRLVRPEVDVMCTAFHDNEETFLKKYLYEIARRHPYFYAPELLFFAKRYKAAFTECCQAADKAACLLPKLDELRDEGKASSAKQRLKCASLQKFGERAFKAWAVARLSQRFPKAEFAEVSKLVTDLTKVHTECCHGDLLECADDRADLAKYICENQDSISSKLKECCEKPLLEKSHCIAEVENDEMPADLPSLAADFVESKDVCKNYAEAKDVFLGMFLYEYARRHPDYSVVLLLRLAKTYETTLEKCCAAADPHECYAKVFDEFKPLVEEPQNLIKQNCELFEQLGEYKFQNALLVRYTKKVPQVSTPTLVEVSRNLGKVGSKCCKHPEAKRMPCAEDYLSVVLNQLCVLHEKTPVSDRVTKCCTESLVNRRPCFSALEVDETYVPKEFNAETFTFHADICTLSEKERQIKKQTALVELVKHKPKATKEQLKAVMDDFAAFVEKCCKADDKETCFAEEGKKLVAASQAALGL
Sequence of albumin (P02768 25-609, species assumed): as the sequence (P02768 25-609) above

- Kd [1]: 76 µM
- half-life [2]: 12.5 min
- half-life ([5]; t1/2 (monophasic profile)): 4.6 min
- time after injection at which no longer detectable ([5]; mice, 20 nmol into the tail vein, plasma): 30 min
Compound: O=C1OC2(c3ccc(O)cc3Oc3cc(O)ccc32)c2ccccc21 [fluorescein]
- patients with nausea and vomit [3]: up to 20%
- time after which staining of the blood vessels not detectable [4]: 20 min

- extravasation observed by MRI [6]: Rapid extravasation
Compound: O=C([O-])CN(CCN(CC(=O)[O-])CC(=O)O)CCN(CC(=O)[O-])CC(=O)O.[Gd+3] [DTPA-Gd, Gadolinium (III)—diethyltriaminepentaacetic acid]

- Kd [1]: 17 µM
- half-life ([5]; t1/2, α): 5 min
- half-life ([5]; t1/2, β): 53 min
Compound: O=C(NCCc1ccccc1)c1ccc2c(c1)C(=O)OC21c2ccc(O)cc2Oc2cc(O)ccc21 [phenethylamine-FAM]

Compound: C=CC1=C(C)/C(=C/c2[nH]c(Cc3[nH]c(/C=C4\NC(=O)C(C)=C4C=C)c(C)c3CCC(=O)O)c(CCC(=O)O)c2C)NC1=O [bilirubin]
- affinity / dissociation constant to albumin (in words) [7]: nanomolar affinity

Compound: COc1cccc2c1C(=O)c1c(O)c3c(c(O)c1C2=O)C[C@@](O)(/C(CO)=N/NC(=O)CCCCCN1C(=O)C=CC1=O)C[C@@H]3O[C@H]1C[C@H](N)[C@H](O)[C@H](C)O1 [DOXO-EMCH]
- maximum tolerated dose relative to unmodified doxorubicin [8]: 2-10 times

Reference: patent US8344177B2, “Albumin binding molecules and uses thereof” (Philochem AG, priority 2006, dated 2013)
